# Measured values: ChEMBL document CHEMBL1201862, “PubChem BioAssay data set” (2004)
#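 Protocol summary: plate cells (96-well), add compound at 5 concentrations, incubate 48 h, interpolate endpoints linearly. Here, GI50 denotes the concentration required for 50% inhibition of growth.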 Active and inactive are the calls of the source. Rule as the data show it: active = GI50 up to about 1.1 µM and inactive = higher.
# Assays:
# Assay in all cases: NCI anticancer screen, dose series, 48 h
# ACHN = tested on: ACHN
# BT-549 = tested on: BT-549
# COLO 205 = tested on: COLO 205
# HL-60 = tested on: HL-60
# Hs-578T = tested on: Hs-578T
# KM12 = tested on: KM12
# LOX IMVI = tested on: LOX IMVI
# M14 = tested on: M14
# MDA-MB-231 = tested on: MDA-MB-231
# NCI-H226 = tested on: NCI-H226
# NCI-H23 = tested on: NCI-H23
# NCI-H522 = tested on: NCI-H522
# PC-3 = tested on: PC-3
# SK-MEL-28 = tested on: SK-MEL-28
# SK-MEL-2 = tested on: SK-MEL-2
# SK-MEL-5 = tested on: SK-MEL-5
# SK-OV-3 = tested on: SK-OV-3
# SN12C = tested on: SN12C
# T47D = tested on: T47D
# EKVX = tested on: EKVX
SMILES,GI50 (ACHN),GI50 (BT-549),GI50 (COLO 205),GI50 (HL-60),GI50 (Hs-578T),GI50 (KM12),GI50 (LOX IMVI),GI50 (M14),GI50 (MDA-MB-231),GI50 (NCI-H226),GI50 (NCI-H23),GI50 (NCI-H522),GI50 (PC-3),GI50 (SK-MEL-28),GI50 (SK-MEL-2),GI50 (SK-MEL-5),GI50 (SK-OV-3),GI50 (SN12C),GI50 (T47D),GI50 (EKVX)
Oc1cc(-c2cccc(Br)c2)nc2cc3c(cc12)OCO3,5.32 µM (inactive),3.6 µM (inactive),32 µM (inactive),3.57 µM (inactive),3.32 µM (inactive),3 µM (inactive),2.75 µM (inactive),2.65 µM (inactive),10.1 µM (inactive),6.75 µM (inactive),5.38 µM (inactive),3.93 µM (inactive),5.43 µM (inactive),2.77 µM (inactive),2.16 µM (inactive),1.38 µM (inactive),3.8 µM (inactive),5.6 µM (inactive),14.6 µM (inactive),
C/C(=N\c1cc(Cl)cc(Cl)c1)c1ccncc1,> 100 µM (inactive),> 100 µM (inactive),> 100 µM (inactive),,> 100 µM (inactive),> 100 µM (inactive),> 100 µM (inactive),> 100 µM (inactive),> 100 µM (inactive),> 100 µM (inactive),> 100 µM (inactive),> 100 µM (inactive),> 100 µM (inactive),> 100 µM (inactive),> 100 µM (inactive),> 100 µM (inactive),29.9 µM (inactive),> 100 µM (inactive),> 100 µM (inactive),> 100 µM (inactive)
CC1OC(OC2C(O[C@@H]3C[C@@H]4CC[C@@H]5[C@H](CC[C@]6(C)[C@@H]7[C@H](C[C@@H]56)O[C@]5(CC[C@@H](C)CO5)[C@H]7C)[C@@]4(C)C[C@H]3O)OC(CO)C(OC3OC(CO)C(O)C(O)C3O)C2O)C(O)C(O)C1O (stereo partly specified),1.79 µM (inactive),2.23 µM (inactive),1.74 µM (inactive),1.91 µM (inactive),2.02 µM (inactive),1.98 µM (inactive),,1.69 µM (inactive),1.8 µM (inactive),1.44 µM (inactive),2.03 µM (inactive),1.1 µM (active),1.52 µM (inactive),1.75 µM (inactive),1.74 µM (inactive),1.55 µM (inactive),1.69 µM (inactive),1.68 µM (inactive),3.66 µM (inactive),1.51 µM (inactive)
CC(=O)NC1=CC(=O)C=C(Cl)C1=O,> 100 µM (inactive),> 100 µM (inactive),39.3 µM (inactive),20.9 µM (inactive),> 100 µM (inactive),> 100 µM (inactive),,42.3 µM (inactive),> 100 µM (inactive),> 100 µM (inactive),43.9 µM (inactive),28.9 µM (inactive),> 100 µM (inactive),> 100 µM (inactive),59.8 µM (inactive),> 100 µM (inactive),> 100 µM (inactive),> 100 µM (inactive),> 100 µM (inactive),> 100 µM (inactive)
COc1ccc(/C=C(\C#N)c2nc(N)nc(N3N=C(C)CC3(C)C)n2)c(O)c1,17.1 µM (inactive),34 µM (inactive),17 µM (inactive),16.5 µM (inactive),18.3 µM (inactive),15.6 µM (inactive),,20.3 µM (inactive),17.8 µM (inactive),16.7 µM (inactive),18.8 µM (inactive),21.7 µM (inactive),37.9 µM (inactive),14.5 µM (inactive),20.7 µM (inactive),15.2 µM (inactive),26.9 µM (inactive),26.8 µM (inactive),15.9 µM (inactive),20.5 µM (inactive)
CCOP(=O)(OCC)/C(C#N)=C/c1cccn1C,> 100 µM (inactive),> 100 µM (inactive),> 100 µM (inactive),,> 100 µM (inactive),> 100 µM (inactive),> 100 µM (inactive),> 100 µM (inactive),> 100 µM (inactive),> 100 µM (inactive),> 100 µM (inactive),> 100 µM (inactive),> 100 µM (inactive),> 100 µM (inactive),> 100 µM (inactive),> 100 µM (inactive),> 100 µM (inactive),> 100 µM (inactive),> 100 µM (inactive),> 100 µM (inactive)
N#CCCSC1SC(=C2SC3=C(SCCS3)S2)SC1SCCC#N (stereo unspecified),> 100 µM (inactive),> 100 µM (inactive),> 100 µM (inactive),> 100 µM (inactive),> 100 µM (inactive),,> 100 µM (inactive),> 100 µM (inactive),> 100 µM (inactive),,> 100 µM (inactive),> 100 µM (inactive),> 100 µM (inactive),> 100 µM (inactive),> 100 µM (inactive),> 100 µM (inactive),,> 100 µM (inactive),> 100 µM (inactive),> 100 µM (inactive)
